Assay results from the supplement of paper PMC10307832.

Key:
Assay in all cases: relative viability (nuclei count vs DMSO), 5 days (fraction); higher = more cells survive
[1] = system: NCI-H2347
In short: (§1)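 Lung cancer cell lines, seeded in 1536-well plates, were treated the following day by pin tool with a single drug or with five library-drug doses (not always all listed) in √10 steps on top of a fixed anchor-drug dose. Cells were fixed and nuclei stained in one step after 5 days, and nuclei were counted. Relative viability is the nuclei count for treated wells divided by that for vehicle wells, reported as medians of duplicate plates.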

[2] = system: LOU-NH91
In short: as §1

[3] = system: HCC-15
In short: as §1

[4] = system: RERF-LC-KJ
In short: as §1

[5] = system: LXF-289
In short: as §1

[6] = system: SW 1573
In short: as §1

[7] = system: NCI-H460
In short: as §1

[8] = system: A-427
In short: as §1

[9] = system: NCI-H1792
In short: as §1

[10] = system: NCI-H1915
In short: as §1

[11] = system: SK-LU-1
In short: as §1

[12] = system: PC-3 [JPC-3]
In short: as §1

[13] = system: NCI-H1755
In short: as §1

[14] = system: NCI-H1734
In short: as §1

[15] = system: NCI-H2228
In short: as §1

[16] = system: NCI-H358
In short: as §1

[17] = system: HOP-62
In short: as §1

[18] = system: NCI-H1975
In short: as §1

[19] = system: NCI-H647
In short: as §1

[20] = system: HCC-78
In short: as §1

[21] = system: LC-2-ad
In short: as §1

[22] = system: NCI-H2126
In short: as §1

SMILES: CC1(C)CCC(c2ccc(Cl)cc2)=C(CN2CCN(c3ccc(C(=O)NS(=O)(=O)c4ccc(N[C@H](CCN5CCOCC5)CSc5ccccc5)c(S(=O)(=O)C(F)(F)F)c4)cc3)CC2)C1 [Navitoclax] + Cc1nc(NC(=O)N2CCC[C@H]2C(N)=O)sc1-c1ccnc(C(C)(C)C(F)(F)F)c1 [Alpelisib] (partner 2 µM)
- relative viability ([1]; first compound 0.005 µM): 0.997
- relative viability ([1]; first compound 0.01581 µM): 1.07
- relative viability ([1]; first compound 0.05 µM): 1.08
- relative viability ([1]; first compound 0.1581 µM): 0.927
- relative viability ([1]; first compound 0.5 µM): 1.2
- relative viability ([2]; first compound 0.005 µM): 0.729
- relative viability ([2]; first compound 0.01581 µM): 0.809
- relative viability ([2]; first compound 0.05 µM): 0.69
- relative viability ([2]; first compound 0.1581 µM): 0.769
- relative viability ([2]; first compound 0.5 µM): 0.645
- relative viability ([3]; first compound 0.005 µM): 0.879
- relative viability ([3]; first compound 0.01581 µM): 0.957
- relative viability ([3]; first compound 0.05 µM): 0.88
- relative viability ([3]; first compound 0.1581 µM): 0.882
- relative viability ([3]; first compound 0.5 µM): 0.764
- relative viability ([4]; first compound 0.005 µM): 0.794
- relative viability ([4]; first compound 0.01581 µM): 0.839
- relative viability ([4]; first compound 0.05 µM): 0.765
- relative viability ([4]; first compound 0.1581 µM): 0.75
- relative viability ([4]; first compound 0.5 µM): 0.793
- relative viability ([5]; first compound 0.005 µM): 1.02
- relative viability ([5]; first compound 0.01581 µM): 1.03
- relative viability ([5]; first compound 0.05 µM): 0.921
- relative viability ([5]; first compound 0.1581 µM): 1.02
- relative viability ([5]; first compound 0.5 µM): 1.08
- relative viability ([6]; first compound 0.005 µM): 0.635
- relative viability ([6]; first compound 0.01581 µM): 0.836
- relative viability ([6]; first compound 0.05 µM): 0.917
- relative viability ([6]; first compound 0.1581 µM): 0.796
- relative viability ([6]; first compound 0.5 µM): 0.718
- relative viability ([7]; first compound 0.005 µM): 0.5
- relative viability ([7]; first compound 0.01581 µM): 0.533
- relative viability ([7]; first compound 0.05 µM): 0.639
- relative viability ([7]; first compound 0.1581 µM): 0.511
- relative viability ([7]; first compound 0.5 µM): 0.46
- relative viability ([8]; first compound 0.005 µM): 1.01
- relative viability ([8]; first compound 0.01581 µM): 1.06
- relative viability ([8]; first compound 0.05 µM): 0.908
- relative viability ([8]; first compound 0.1581 µM): 1.14
- relative viability ([8]; first compound 0.5 µM): 1.04
- relative viability ([9]; first compound 0.005 µM): 0.735
- relative viability ([9]; first compound 0.01581 µM): 0.878
- relative viability ([9]; first compound 0.05 µM): 0.534
- relative viability ([9]; first compound 0.1581 µM): 0.657
- relative viability ([9]; first compound 0.5 µM): 0.692
- relative viability ([10]; first compound 0.005 µM): 1.08
- relative viability ([10]; first compound 0.01581 µM): 1.06
- relative viability ([10]; first compound 0.05 µM): 1.01
- relative viability ([10]; first compound 0.1581 µM): 0.94
- relative viability ([10]; first compound 0.5 µM): 1
- relative viability ([11]; first compound 0.005 µM): 0.979
- relative viability ([11]; first compound 0.01581 µM): 1.12
- relative viability ([11]; first compound 0.05 µM): 1.23
- relative viability ([11]; first compound 0.1581 µM): 0.906
- relative viability ([11]; first compound 0.5 µM): 0.867
- relative viability ([12]; first compound 0.005 µM): 1.04
- relative viability ([12]; first compound 0.01581 µM): 1.02
- relative viability ([12]; first compound 0.05 µM): 1.02
- relative viability ([12]; first compound 0.1581 µM): 1.03
- relative viability ([12]; first compound 0.5 µM): 1.06
- relative viability ([13]; first compound 0.005 µM): 0.903
- relative viability ([13]; first compound 0.01581 µM): 1
- relative viability ([13]; first compound 0.05 µM): 0.906
- relative viability ([13]; first compound 0.1581 µM): 0.904
- relative viability ([13]; first compound 0.5 µM): 0.947
- relative viability ([14]; first compound 0.005 µM): 0.618
- relative viability ([14]; first compound 0.01581 µM): 0.779
- relative viability ([14]; first compound 0.1581 µM): 0.645
- relative viability ([14]; first compound 0.5 µM): 0.63
- relative viability ([15]; first compound 0.005 µM): 0.745
- relative viability ([15]; first compound 0.01581 µM): 0.725
- relative viability ([15]; first compound 0.05 µM): 0.602
- relative viability ([15]; first compound 0.1581 µM): 0.688
- relative viability ([15]; first compound 0.5 µM): 0.819
- relative viability ([16]; first compound 0.005 µM): 0.817
- relative viability ([16]; first compound 0.01581 µM): 0.955
- relative viability ([16]; first compound 0.05 µM): 1.01
- relative viability ([16]; first compound 0.1581 µM): 1.04
- relative viability ([16]; first compound 0.5 µM): 0.856
- relative viability ([17]; first compound 0.005 µM): 0.781
- relative viability ([17]; first compound 0.01581 µM): 1.06
- relative viability ([17]; first compound 0.05 µM): 0.869
- relative viability ([17]; first compound 0.1581 µM): 0.871
- relative viability ([17]; first compound 0.5 µM): 0.785
- relative viability ([18]; first compound 0.005 µM): 0.639
- relative viability ([18]; first compound 0.01581 µM): 0.732
- relative viability ([18]; first compound 0.05 µM): 0.752
- relative viability ([18]; first compound 0.1581 µM): 0.653
- relative viability ([18]; first compound 0.5 µM): 0.578
- relative viability ([19]; first compound 0.005 µM): 1.04
- relative viability ([19]; first compound 0.01581 µM): 1.35
- relative viability ([19]; first compound 0.05 µM): 1.48
- relative viability ([19]; first compound 0.1581 µM): 1.14
- relative viability ([19]; first compound 0.5 µM): 0.75
- relative viability ([20]; first compound 0.005 µM): 0.309
- relative viability ([20]; first compound 0.01581 µM): 0.352
- relative viability ([20]; first compound 0.1581 µM): 0.341
- relative viability ([20]; first compound 0.5 µM): 0.339
- relative viability ([21]; first compound 0.005 µM): 0.972
- relative viability ([21]; first compound 0.01581 µM): 0.948
- relative viability ([21]; first compound 0.05 µM): 0.901
- relative viability ([21]; first compound 0.1581 µM): 0.946
- relative viability ([21]; first compound 0.5 µM): 0.904
- relative viability ([22]; first compound 0.005 µM): 0.7
- relative viability ([22]; first compound 0.01581 µM): 0.764
- relative viability ([22]; first compound 0.05 µM): 0.757
- relative viability ([22]; first compound 0.1581 µM): 0.727
- relative viability ([22]; first compound 0.5 µM): 0.771
